# Measurements from ChEMBL document CHEMBL5321275, “Discovery, Optimization, and Evaluation of Novel N-(Benzimidazol-5-yl)-1,3,4-thiadiazol-2-amine Analogues as Potent STAT3 Inhibitors for Cancer Treatment” (J Med Chem, 2023).
# Activity calls are given as the source filed them. The calls are words filed in the database; no cut-off is given here.
# Key:
# MDA-MB-231 [1] = assay: Induction of apoptosis in human MDA-MB-231 cells measured after 48 hrs by annexin V-FITC and PI staining based flow cytometry analysis; type: functional, cell-based; details: dose <= 10.0 µM
# MDA-MB-231 [2] = assay: Induction of apoptosis in human MDA-MB-231 cells assessed as late apoptotic cells at 10 uM measured after 48 hrs by annexin V-FITC and PI staining based flow cytometry analysis (reference value: 3.1%); type: functional
# [3] = target: T1, Signal transducer and activator of transcription 3 (Homo sapiens, UniProt P40763); assay: Inhibition of STAT3 nuclear translocation in human DU-145 cells at 5 uM measured after 24 hrs by immunofluorescence assay; type: cell-based
# [4] = Half life in ICR mouse at 5 mg/kg, iv measured upto 96 hrs by HPLC-MS/MS analysis; type: ADME, organism-based; details: in vivo
# [5] = target: T1, Signal transducer and activator of transcription 3; assay: Inhibition of STAT3 phosphorylation at Tyr705 residue in human DU-145 cells incubated for 24 hrs by Western blot analysis; type: cell-based; details: dose <= 10.0 µM
# [6] = AUC (0 to infinity) in ICR mouse at 5 mg/kg, iv measured upto 96 hrs by HPLC-MS/MS analysis; type: ADME, organism-based; parameters: dose 5 mg/kg, time < 96 hrs, route iv; details: in vivo
# DU-145 [7] = assay: Antitumor activity against human DU-145 cells xenografted in Balb/c nude mouse model assessed as reduction in phosphorylated STAT3 at Y705 residue by immunoblotting analysis; type: functional, cell-based
# DU-145 [8] = assay: Induction of apoptosis in human DU-145 cells assessed as late apoptotic cells at 5 uM measured after 48 hrs by annexin V-FITC and PI staining based flow cytometry analysis (reference value: 2.0%); type: functional
# MDA-MB-231 [9] = assay: Induction of apoptosis in human MDA-MB-231 cells assessed as late apoptotic cells at 5 uM measured after 48 hrs by annexin V-FITC and PI staining based flow cytometry analysis (reference value: 3.1%); type: functional
# MDA-MB-231 [10] = assay: Antiproliferative activity against human MDA-MB-231 cells assessed as inhibition of cell growth at 10 uM measured after 96 hrs by MTT assay relative to control; type: functional
# MDA-MB-231 [11] = assay: Antiproliferative activity against human MDA-MB-231 cells assessed as inhibition of cell growth measured after 96 hrs by MTT assay; type: functional, cell-based; details: MDA-MB-231, 96 h
# HCT-116 = assay: Antiproliferative activity against human HCT-116 cells assessed as inhibition of cell growth measured after 96 hrs by MTT assay; type: functional, cell-based; details: HCT-116, 96 h
# DU-145 [12] = assay: Antiproliferative activity against human DU-145 cells assessed as inhibition of cell growth measured after 96 hrs by MTT assay; type: functional, cell-based; details: DU-145, 96 h
# DU-145 [13] = assay: Induction of apoptosis in human DU-145 cells assessed as cell apoptotic percentage at 10 uM measured after 48 hrs by annexin V-FITC and PI staining based flow cytometry analysis relative to control; type: functional
# [14] = Toxicity in Balb/c mouse assessed as drug tolerance at 50 mg/kg, ip administered once daily for 16 days; type: organism-based; details: in vivo, 384 h, time 16 day
# DU-145 [15] = assay: Induction of apoptosis in human DU-145 cells assessed as early apoptotic cells at 1 uM measured after 48 hrs by annexin V-FITC and PI staining based flow cytometry analysis (reference value: 2.5%); type: functional
# [16] = Inhibition of IL-6/JAK/STAT3 signalling pathway in HEK-Blue IL-6 cells incubated for 16 hrs by QUANTI-blue assay; type: cell-based; details: Homo sapiens, HEK-Blue IL-6, 16 h
# [17] = Toxicity in Balb/c mouse assessed as effect on kidney at 50 mg/kg by hematoxylin and eosin staining based histopathological analysis; type: organism-based; details: in vivo
# [18] = Toxicity in Balb/c mouse assessed as effect on heart at 50 mg/kg by hematoxylin and eosin staining based histopathological analysis; type: organism-based; details: in vivo
# [19] = Oral bioavailability in ICR mouse at 50 mg/kg measured upto 96 hrs by HPLC-MS/MS analysis; type: ADME, organism-based; details: in vivo
# PANC-1 = assay: Antiproliferative activity against human PANC-1 cells assessed as inhibition of cell growth measured after 96 hrs by MTT assay; type: functional, cell-based; details: PANC-1, 96 h
# DU-145 [20] = assay: Induction of apoptosis in human DU-145 cells assessed as late apoptotic cells at 1 uM measured after 48 hrs by annexin V-FITC and PI staining based flow cytometry analysis (reference value: 2.0%); type: functional
# [21] = Tmax in ICR mouse at 50 mg/kg, po measured upto 96 hrs by HPLC-MS/MS analysis; type: ADME, organism-based; details: in vivo
# T1 sequence (P40763 whole entry): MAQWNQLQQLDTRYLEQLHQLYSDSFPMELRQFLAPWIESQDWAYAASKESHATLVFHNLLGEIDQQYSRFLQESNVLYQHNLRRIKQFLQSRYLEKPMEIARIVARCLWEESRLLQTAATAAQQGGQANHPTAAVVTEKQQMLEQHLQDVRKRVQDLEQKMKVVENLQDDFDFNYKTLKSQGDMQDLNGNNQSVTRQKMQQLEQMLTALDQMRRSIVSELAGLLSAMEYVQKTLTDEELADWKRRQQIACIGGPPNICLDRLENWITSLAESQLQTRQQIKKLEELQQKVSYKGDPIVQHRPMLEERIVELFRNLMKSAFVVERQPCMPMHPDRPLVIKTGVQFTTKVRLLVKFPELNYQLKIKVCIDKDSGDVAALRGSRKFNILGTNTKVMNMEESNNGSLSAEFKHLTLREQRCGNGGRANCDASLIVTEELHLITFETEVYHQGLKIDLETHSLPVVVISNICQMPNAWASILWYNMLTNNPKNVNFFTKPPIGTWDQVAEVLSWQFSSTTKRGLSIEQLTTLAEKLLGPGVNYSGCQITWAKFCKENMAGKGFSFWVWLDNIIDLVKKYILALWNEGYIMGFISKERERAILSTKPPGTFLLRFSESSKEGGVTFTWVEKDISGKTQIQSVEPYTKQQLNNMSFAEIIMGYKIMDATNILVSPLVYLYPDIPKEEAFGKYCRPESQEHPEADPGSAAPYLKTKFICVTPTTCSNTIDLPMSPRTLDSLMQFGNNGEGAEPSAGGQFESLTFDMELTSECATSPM
smiles,measurement,setting,value
CN1CCN(c2cc3c(cc2Nc2nnc(-c4ccc(C(F)(F)F)cc4)s2)nc(-c2ccc(F)cc2)n3C2CC2)CC1,Activity,MDA-MB-231 [1],Dose-Dependent Effect
same,Activity,MDA-MB-231 [2],20.1%
same,inhibition,[3],Active
same,half-life,[4],9 h
same,inhibition,[5],Dose-Dependent Effect
same,AUC(0-inf),[6],3450 ng·h/mL
same,Activity,DU-145 [7],Active
same,Activity,DU-145 [8],13.9%
same,Activity,MDA-MB-231 [9],10.7%
same,inhibition at 10 µM,MDA-MB-231 [10],90.1%
same,IC50,MDA-MB-231 [11],3260 nM
same,IC50,HCT-116,2190 nM
same,IC50,DU-145 [12],2970 nM
same,Activity,DU-145 [13],79.6%
same,Activity,[14],Non-Toxic
same,Activity,DU-145 [15],2.1%
same,IC50,[16],650 nM
same,Activity,[17],Non-Toxic
same,Activity,[18],Non-Toxic
same,bioavailability,[19],52%
same,IC50,PANC-1,2430 nM
same,Activity,DU-145 [20],2.4%
same,Tmax,[21],4.67 h
